Counter-ions that a name gives are not always drawn.
Experiments:
[1] = Polymorphic stability: stirring in acetonitrile or organic solvent mixture, PXRD; details: for polymorph conversion in acetonitrile (PXRD): suspension in acetonitrile, room temperature, five days; for polymorph conversion in acetonitrile-acetone 1:1 (PXRD): suspension stirred at room/ambient temperature, four days
Description: The stability test is carried out by stirring the sample salt at 600 rpm in an amount of approximately 0.1 g/ml acetonitrile and optionally water as defined above. After 96 hours of stirring, the salt is removed by filtration and is dried and then subjected to X-ray powder diffraction analysis.

[2] = Polymorphic stability: suspension equilibration in water, PXRD; format: physicochemical; details: 25° C., 600 rpm, two days
[3] = Water uptake / hygroscopicity by dynamic vapor sorption; format: physicochemical; details: for hygroscopic nature: dynamic vapor sorption; for water uptake (dynamic vapor sorption): up to 95% rel. humidity, citrate: most uptake above 80% relative humidity
Excerpt: The hygroscopic nature of the citrate salt was investigated by dynamic vapor sorption.

[4] = Solubility of Asenapine maleate in saturated solution (literature, Funke et al.); format: physicochemical; details: saturated aqueous solution, water, thermodynamic from solid; maleate solubility at 23° C., pH=4.4, translated into free base
Excerpt: Certain crystalline addition salts of Asenapine, for instance a fumarate (EP 0569096), salts with sulfonic acids (WO98/54186), and a pamoate or hemipamoate salt (EP569096), are described in the literature. The pamoate salt is disclosed to be amorphous and the hemipamoate salt is a mixture of amorphous and crystalline phase, wherein the palmitate is described as oil. The marketed form is the maleate salt, which is disclosed to exist in polymorphic forms (WO 2006/106135). The known Asenapine salts have a low solubility in water.

[5] = 23° C., pH=4.4; cited from earlier work
[6] = listed as Asenapine citrate of the invention

Row | Structure (SMILES) | polymorph conversion in acetonitrile (PXRD) [1] | polymorph conversion in acetonitrile (PXRD) [1, 6] | polymorph conversion in water suspension (PXRD) [2] | polymorph conversion in water suspension (PXRD) [2, 6] | hygroscopic nature [3] | water uptake (dynamic vapor sorption) [3] | polymorph conversion in acetonitrile-acetone 1:1 (PXRD) [1] | polymorph conversion in acetonitrile-acetone 1:1 (PXRD) ([1]; listed as crystalline Asenapine malonate of the invention) | polymorph conversion in water suspension (PXRD) ([2]; listed as crystalline malonate of the invention) | solubility [4] [µg/mL] | concentration of saturated solution [5] [µg/mL]
1 | CN1C[C@H]2c3ccccc3Oc3ccc(Cl)cc3[C@@H]2C1.O=C(O)CC(O)(CC(=O)O)C(=O)O [crystalline Asenapine citrate form I] | no phase transformation was observed | does not change its polymorphic form | no phase transformation was observed | does not change its polymorphic form | not or only very slightly hygroscopic | about 1.5% |  |  |  |  | 
2 | CN1CC2c3ccccc3Oc3ccc(Cl)cc3C2C1.O=C(O)CC(=O)O (centres unmarked) [crystalline Asenapine malonate form I] |  |  | no phase transformation was observed |  | completely non-hygroscopic | less than 0.2% | no phase transformation was observed | No polymorph conversion | no polymorph conversion was observed |  | 
3 | CN1CC2c3ccccc3Oc3ccc(Cl)cc3C2C1 (centres unmarked) [maleate salt of Asenapine] |  |  |  |  |  |  |  |  |  | ~4100 | 5800

From patent publication US9169262B2, “Crystalline salts of Asenapine with organic di-acids and tri-acids” (SANDOZ AG, priority 2011, dated 2015)
